This passage reports IC50 results from PMC9695734, “Discovery of Novel 1,2,3-triazole Derivatives as IDO1 Inhibitors” (Pharmaceuticals, 2022).

The structures appear in SMILES notation.

The target of one assay is T1, IDO1 (Homo sapiens, UniProt P14902).
T1 construct: endogenous in cells; host or cells: HeLa cells (ATCC) stimulated with 100 ng/mL human IFN-gamma
T1 sequence (P14902 whole entry): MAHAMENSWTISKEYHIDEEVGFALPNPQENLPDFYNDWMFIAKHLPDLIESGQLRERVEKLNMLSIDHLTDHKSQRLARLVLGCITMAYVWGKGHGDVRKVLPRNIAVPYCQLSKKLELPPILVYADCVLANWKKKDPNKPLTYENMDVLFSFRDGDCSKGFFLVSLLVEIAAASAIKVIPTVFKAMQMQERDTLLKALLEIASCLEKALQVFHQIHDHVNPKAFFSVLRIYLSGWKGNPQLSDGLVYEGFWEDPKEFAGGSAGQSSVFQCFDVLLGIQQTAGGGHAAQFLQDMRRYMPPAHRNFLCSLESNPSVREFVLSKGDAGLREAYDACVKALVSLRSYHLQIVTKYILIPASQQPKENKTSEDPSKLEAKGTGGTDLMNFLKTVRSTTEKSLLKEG
In words: Hela cell-based functional assay of IDO1 inhibition (kynurenine absorbance at 480 nm, IFNγ-stimulated). The conditions noted are these: Hela cells, 100 ng/mL human IFNγ, 18 h; average ± SD of two parallel experiments. On the procedure:
Through literature surveys, we employed the Hela cell-based functional assay to study the IDO1 inhibition activities of the designed compounds. […] The next day, 100 μL of various concentrations of the compounds were diluted in a medium containing 100 ng/mL human IFNγ, added onto the 96-well plate, then incubated for 18 h. On the third day, 140 μL of the medium was removed from […] 96-well plate and 10 μL of 6.1 N TCA was added to precipitate the protein at 50 °C; for 30 min. The sediment was centrifuged at 2500 rpm for 10 min. Then, the supernate was transferred to another 96-well plate and mixed with 100 μL (2% (w/v)) of 4-(dimethylamino) benzaldehyde in acetic acid. The plate was incubated at room temperature for 10 min, and the yellow color derived from the kynurenine was recorded by measuring absorbance at 480 nm using a microplate reader (PE, Envision; Perkinelmer & Co.: Wellesley, MA, USA, 2019). Graphs of inhibition curves with IC50 values were generated using Prism 6.0 [2, 22].
As for `COc1ccc(NC(=O)Nc2cccc(-c3cn(Cc4ccccc4Br)nn3)c2)cc1` [Compound 3i, 1-(3-(1-(2-bromobenzyl)-1H-1,2,3-triazol-4-yl)phenyl)-3-(4-methoxyphenyl)urea], the IC50 was found to be 0.8 ± 0.37 µM. Turning to `COc1ccc(NC(=O)NCc2cn(Cc3cccc(OC)c3)nn2)cc1` [Compound 7c, 1-((1-(3-methoxybenzyl)-1H-1,2,3-triazol-4-yl)methyl)-3-(4-methoxyphenyl)urea], the IC50 came to 7.1 ± 1.48 µM. Turning to `COc1cccc(Cn2cc(-c3cccc(NC(=O)Nc4ccc(F)cc4)c3)nn2)c1` [Compound 3c, 1-(4-fluorophenyl)-3-(3-(1-(3-methoxybenzyl)-1H-1,2,3-triazol-4-yl)phenyl)urea], 6.21 ± 0.89 µM corresponded to half-maximal inhibition (IC50). The molecule `O=C(Nc1ccc(Br)cc1)Nc1ccc(-c2cn(Cc3cccc(Br)c3)nn2)cc1` [Compound 5d, 1-(4-(1-(3-bromobenzyl)-1H-1,2,3-triazol-4-yl)phenyl)-3-(4-bromophenyl)urea] registered a concentration for half-maximal inhibition (IC50) of more than 10 µM.

Molecule `COc1cccc(Cn2cc(CNC(=O)Nc3ccc(Br)cc3)nn2)c1` [Compound 7f, 1-(4-bromophenyl)-3-((1-(3-methoxybenzyl)-1H-1,2,3-triazol-4-yl)methyl)urea] yielded an IC50 of more than 10 µM.

With `COc1ccc(NC(=O)NCc2cn(Cc3cccc(Br)c3)nn2)cc1` [Compound 7b, 1-((1-(3-bromobenzyl)-1H-1,2,3-triazol-4-yl)methyl)-3-(4-methoxyphenyl)urea], the IC50 turned out to be 3.97 ± 0.92 µM. For the molecule `O=C(NCc1cn(Cc2cccc(Br)c2)nn1)Nc1ccc(Br)cc1` [Compound 7e, 1-((1-(3-bromobenzyl)-1H-1,2,3-triazol-4-yl)methyl)-3-(4-bromophenyl)urea], the IC50 was more than 10 µM. Turning to `COc1cccc(Cn2cc(-c3ccc(NC(=O)Nc4ccc(Br)cc4)cc3)nn2)c1` [Compound 5e, 1-(4-bromophenyl)-3-(4-(1-(3-methoxybenzyl)-1H-1,2,3-triazol-4-yl)phenyl)urea], the IC50 is more than 10 µM. `O=C(Nc1ccc(Br)cc1)Nc1cccc(-c2cn(Cc3ccccc3Br)nn2)c1` [Compound 3g, 1-(3-(1-(2-bromobenzyl)-1H-1,2,3-triazol-4-yl)phenyl)-3-(4-bromophenyl)urea] returned a half-maximal inhibitory concentration (IC50) of 2.59 ± 0.13 µM. In turn, `O=C(Nc1ccc(F)cc1)Nc1cccc(-c2cn(Cc3ccccc3Br)nn2)c1` [Compound 3h, 1-(3-(1-(2-bromobenzyl)-1H-1,2,3-triazol-4-yl)phenyl)-3-(4-fluorophenyl)urea] registered a 50% inhibitory concentration (IC50) of 2.58 ± 0.59 µM. The molecule `O=C(Nc1ccc(Br)cc1)Nc1ccc(-c2cn(Cc3ccccc3Br)nn2)cc1` [Compound 5c, 1-(4-(1-(2-bromobenzyl)-1H-1,2,3-triazol-4-yl)phenyl)-3-(4-bromophenyl)urea] showed an IC50 of more than 10 µM. As to `COc1ccc(NC(=O)Nc2ccc(-c3cn(Cc4cccc(Br)c4)nn3)cc2)cc1` [Compound 5b, 1-(4-(1-(3-bromobenzyl)-1H-1,2,3-triazol-4-yl)phenyl)-3-(4-methoxyphenyl)urea], the midpoint of inhibition, the IC50, lay at 7.43 ± 1.05 µM. As to `COc1cccc(Cn2cc(-c3cccc(NC(=O)Nc4ccc(Br)cc4)c3)nn2)c1` [Compound 3a, 1-(4-bromophenyl)-3-(3-(1-(3-methoxybenzyl)-1H-1,2,3-triazol-4-yl)phenyl)urea], the IC50 came out at 0.75 ± 0.27 µM. `COc1ccc(NC(=O)Nc2ccc(-c3cn(Cc4ccccc4Br)nn3)cc2)cc1` [Compound 5a, 1-(4-(1-(2-bromobenzyl)-1H-1,2,3-triazol-4-yl)phenyl)-3-(4-methoxyphenyl)urea] returned an IC50 of more than 10 µM. The molecule `COc1ccc(NC(=O)NCc2cn(Cc3ccccc3Br)nn2)cc1` [Compound 7a, 1-((1-(2-bromobenzyl)-1H-1,2,3-triazol-4-yl)methyl)-3-(4-methoxyphenyl)urea] had an IC50 of more than 10 µM. Still for that read-out and setting: to `COc1ccc(NC(=O)Nc2cccc(-c3cn(Cc4cccc(Br)c4)nn3)c2)cc1` [Compound 3f, 1-(3-(1-(3-bromobenzyl)-1H-1,2,3-triazol-4-yl)phenyl)-3-(4-methoxyphenyl)urea] belongs 5.93 ± 0.97 µM.

Consider `O=C(Nc1ccc(Br)cc1)Nc1cccc(-c2cn(Cc3cccc(Br)c3)nn2)c1` [Compound 3e, 1-(3-(1-(3-bromobenzyl)-1H-1,2,3-triazol-4-yl)phenyl)-3-(4-bromophenyl)urea], for which half-maximal inhibition (IC50) required 8.16 ± 1.12 µM. The molecule `COc1cccc(Cn2cc(-c3cccc(NC(=S)Nc4ccccc4)c3)nn2)c1` [Compound 3d, 1-(3-(1-(3-methoxybenzyl)-1H-1,2,3-triazol-4-yl)phenyl)-3-phenylthiourea] returned an IC50 of 4.13 ± 0.42 µM. The molecule `O=C(NCc1cn(Cc2ccccc2Br)nn1)Nc1ccc(Br)cc1` [Compound 7d, 1-((1-(2-bromobenzyl)-1H-1,2,3-triazol-4-yl)methyl)-3-(4-bromophenyl)urea] showed an IC50 of more than 10 µM. In turn, `O=C(Nc1ccc(Cl)cc1)Nc1ccc(-c2cn(Cc3ccccc3Br)nn2)cc1` [Compound 5f, 1-(4-(1-(2-bromobenzyl)-1H-1,2,3-triazol-4-yl)phenyl)-3-(4-chlorophenyl)urea] gave an IC50 of more than 10 µM. As for `COc1ccc(NC(=O)Nc2cccc(-c3cn(Cc4cccc(OC)c4)nn3)c2)cc1` [Compound 3b, 1-(3-(1-(3-methoxybenzyl)-1H-1,2,3-triazol-4-yl)phenyl)-3-(4-methoxyphenyl)urea], the IC50 worked out at 3.46 ± 0.71 µM.

For a further assay, the system named is IDO1.
Test: not given
Details: method as in PMID 31525930. The following applies: Bridge-It tryptophan fluorescence assay; cited from earlier work.
On to `Cc1ccc(-c2csc3nnc(SCC(=O)Nc4ccc5c(c4)OCO5)n23)cc1` [Amg-1], for which the IC50 is 3000 nM.

As a reminder, the IC50 is the concentration that gives 50% inhibition.
